The subject of test [1] is 21CTA human telomeric sequence variant G4. Format: binding. Particulars: K+100 buffer; for % of TO displacement at 1 µM of ligand: TO 2 eq; for % of TOPRO3 displacement at 1 µM of ligand: TO-PRO-3 2 eq. Here is the method:
(§1) For the G4-FID assay, the oligonucleotides were dissolved in K^+100 buffer (10 mM lithium cacodylate buffer pH 7.3, 100 mM KCl, 1% DMSO). Oligonucleotide concentrations were determined on the basis of their absorbance at 260 nm. For the fluorimetric titration, the oligonucleotides were dissolved in K^+100 buffer without DMSO. For the FRET-melting assay, the oligonucleotides were dissolved in K^+1 buffer (10 mM lithium cacodylate buffer pH 7.3, 1 mM KCl, 99 mM LiCl) except for F-21-T. F-21-T was dissolved in K^+10 buffer (10 mM lithium cacodylate buffer pH 7.3, 10 mM KCl, 90 mM LiCl).
(§2) Prior to use, all oligonucleotides were pretreated by heating at 95 °C for 5 min, then rapidly cooled to 4 °C to favor the intramolecular folding by kinetic trapping. Duplex-DNA ds26 was prepared by heating the self-complementary strand at 90 °C for 5 min in K^+1 buffer followed by a slow cooling over 6 h.
(§3) Each G4-FID assay was performed in a 96-well Non-Binding Surface black with black bottom polystyrene microplates (Corning). Every ligand was tested on a line of the microplate, in duplicate. The microplate was filled with (a) K^+100 solution (qs for 200 μL), (b) 10 μL of a solution of pre-folded oligonucleotides (5 μM) and fluorescent probe (TO/TO-PRO-3 (10 μM—2 eq) or PhenDV (7,5 µM—1.5 eq)), and (c) an extemporaneously prepared 5 μM ligand solution in K^+100 buffer (0 to 100 μL) along the line of the microplate, i.e., from column A to column H: 0, 0.125, 0.25, 0.375, 0.5, 0.625, 0.75, 1.0, 1.25, 1.5, 2.0, and 2.5 μM. After 5 min of orbital shaking at 500 rpm, fluorescence is measured using the following experimental parameters: positioning delay of 0.5 s, 20 flashes per well, emission/excitation filters for TO at 485/520, TO-PRO-3 at 620/670, and PhenDV at 355/520 gain adjusted at 80% of the fluorescence from the most fluorescent well (i.e., a well from column A for TO and a well from column H).
(§4) The percentage of TO displacement is calculated from the fluorescence intensity (F), using (1) % TO displacement=1−F/F0 where F0 is the fluorescence from the fluorescent probe bound to DNA without added ligand.
(§5) The PhenDV displacement is calculated from the fluorescence intensity F; F(ligand+probe), which refers to the fluorescence of the probe in presence of the ligand (without G4); and F0, which is the fluorescence without added ligand. The term F(ligand+probe) is necessary as the ligand can quench the fluorescence of the probe. The percentage of displacement is then plotted as a function of the concentration of the added ligand. The DNA affinity was evaluated by the concentration of ligand required to decrease the fluorescence of the probe by 50%, was noted DC50, and was determined after non-linear fitting of the displacement curve.

For test [2] the test system is unchanged. Format: binding. Particulars: PhenDV 1.5 eq, K+100 buffer. Here is the method: as §1, §2, §3
(§6) In the case of PhenDV, the fluorescence of the unbound probe is not negligible. The percentage of displacement becomes (2) % PhenDV Displacement=F−F0/Fligand+probe−F0
as §5

The subject of test [3] is 22AG human telomeric sequence G4. Description: TO-PRO-3 G4-FID assay. Format: binding. Particulars: TO-PRO-3 2 eq, K+100 buffer. Here is the method:
as §1, §2, §3, §4, §5

For test [4], the system named is c-myc G4. Description: TO-PRO-3 G4-FID assay. Particulars: TO-PRO-3 2 eq, K+100 buffer. Format: binding. The protocol: as §1, §2, §3, §4, §5
Test [5] concerns CEB25-WT minisatellite sequence G4. Description: TO-PRO-3 G4-FID assay. Format: binding. Particulars: TO-PRO-3 2 eq, K+100 buffer. The protocol: as §1, §2, §3, §4, §5
For test [6], the system named is c-myc (myc22) (DNA, G4) TGAGGGTGGGTAGGGTGGGTAA
Description: G4-FID, PhenDV displacement. Particulars: 100 mM KCl; 10 mM lithium cacodylate pH 7.3, 1% DMSO; PhenDV displaced; 1 µM compound.

Test [7] has as its system 22AG human telomeric sequence G4. Put plainly: TO G4-FID assay. In kind it is binding. Particulars: TO 2 eq, K+100 buffer. Here is the method:
as §1, §2, §3, §4, §5

The subject of test [8] is c-myc G4. Put plainly: TO G4-FID assay. In kind it is binding. The settings on record: TO 2 eq, K+100 buffer. The protocol: as §1, §2, §3, §4, §5
Test [9] has as its system CEB25-WT minisatellite sequence G4. Description: TO G4-FID assay. Format: binding. The settings on record: TO 2 eq, K+100 buffer. Here is the method:
as §1, §2, §3, §4, §5

In test [10] the test system is 22AG human telomeric sequence G4. Description: PhenDV G4-FID assay. In kind it is binding. The settings on record: PhenDV 1.5 eq, K+100 buffer. Here is the method: as §1, §2, §3, §6, §5
Test [11] has as its system c-myc G4. Description: PhenDV G4-FID assay. In kind it is binding. The settings on record: PhenDV 1.5 eq, K+100 buffer. The protocol:
as §1, §2, §3, §6, §5

The subject of test [12] is CEB25-WT minisatellite sequence G4. Put plainly: PhenDV G4-FID assay. In kind it is binding. The settings on record: PhenDV 1.5 eq, K+100 buffer. The protocol: as §1, §2, §3, §6, §5
Test [13] has as its system CCD19Lu normal lung cell line. Description: Cell growth (proliferation), 96 h treatment. In kind it is cell-based, human. The protocol: (§7) The ovarian carcinoma cell lines and human normal lung cells were purchased from ATCC and were grown in complete RPMI medium (ovarian) and DMEM (human lung cells) supplemented with 10% fetal calf serum, in the presence of penicillin, streptomycin. The resistance of A2780cis cells to cisplatin was maintained by monthly treatment with 1 µM cisplatin for 4 days. Concentrated stock solutions of complexes were conserved at −20 °C (DMSO/Water) and freshly diluted in water just before the experiments. Cells were treated with various concentrations of platinum complexes at 37 °C under humidity and 5% CO2 conditions for 96 h. Cellular growth was quantified using the particle counter MOXI (VWR).

Test [14] relates to A2780 ovarian cancer cell line. Put plainly: Cell growth (proliferation), 96 h treatment. In kind it is cell-based, human. Particulars: for pIC50: A2780, 96 h treatment. Here is the method: as §7
Test [15] deals with A2780cis cisplatin-resistant ovarian cancer cell line. Put plainly: Cell growth (proliferation), 96 h treatment. Format: cell-based, human. Here is the method:
as §7

Test [16] deals with G4 structures (22AG, c-myc, 21CTA, CEB25-WT). Put plainly: TO-PRO-3-G4-FID assay, G4 structures. Format: binding. The protocol:
as §1, §2, §3, §4, §5

Test [17] concerns G4-DNA structures (F-21-T, F-myc-T, F-21CTA-T, F-CEB25-WT-T). Description: FRET-melting assay (ligand-induced stabilization). In kind it is binding, human. Here is the method: as §1, §2
The stabilization of the compounds with a quadruplex-structure was monitored via FRET-melting assay performed in 96-well plates on a real-time PCR apparatus 7900HT Fast Real-Time PCR System as follows: 5 min at 25 °C and then an increase of 0.5 °C every minute until 95 °C. Each experimental condition was tested and replicated in a volume of 25 μL for each sample. The FRET-melting assay was performed with three dual fluorescently labeled DNA oligonucleotide sequences oligonucleotides. The donor fluorophore was 6-carboxyfluorescein, FAM, and the acceptor fluorophore was 6-carboxytetramethylrhodamine, TAMRA. The 96-well plates (Applied Biosystems) were prepared by aliquoting the annealed DNA (0.2 μM in K^+1 or K^+10 buffer) into each well, followed by 1 μL of the ligand ([…] (5 eq) in DMSO). For competition experiments, duplex competitors were added to 200 nM quadruplex sequences at final concentrations of 3.0 μM (15 eq) and 10.0 μM (50 eq), with a total reaction volume of 25 μL, with the labeled oligonucleotide (0.2 μM) and the ligand (1 μM). Measurements were made with excitation at 492 nm and detection at 516 nm. The change in the melting temperature at 1.0 μm compound concentration, ΔTm (1.0 μM), was calculated from at least two experiments by subtraction of the blank from the averaged melting temperature of each compound (1.0 μM). The final analysis of the data was carried out using Origin Pro 8.6 data analysis.

Test [18] deals with all the tested G4s structures. The arrangement: method as in PMID 21528379. Particulars: cited from earlier work.

pIC50: −log10 of the molar value. “Also recorded” adds a separate entry of the source. Read-outs that look alike come from different tables or passages of the source.

With `C[n+]1cc(NC(=O)c2ccc3ccc4ccc(C(=O)Nc5cc6ccccc6[n+](C)c5)nc4c3n2)cc2ccccc21` [PhenDC3, reference compound], the “% of TO displacement at 1 µM of ligand” value in test [1] came out at 95%; in test [7], 95%; in the test with c-myc G4 [8] it was 96%; in test [9] it was 90%. In addition, the “% of TOPRO3 displacement at 1 µM of ligand” value is given as 83% in [1], 85% in test [3], 73% in the test with c-myc G4 [4] and 88% in [5]. Further, the “% of PhenDV displacement at 1 µM of ligand” value in test [2] is recorded as 100%; in [10] it was 92%; in the test on c-myc G4 [11], 85%; in [12] it was 99%. In addition, the binding entry in test [6] was “yes”.

One may read the pIC50 as the IC50 on a negative log10 scale, so that one unit is a factor of ten. A low value points to a high IC50. Regarding `F[P-](F)(F)(F)(F)F.[Pt+][C]#Cc1ccccc1.c1ccc(-c2cccc(-c3ccccn3)n2)nc1` [Pt(PA)-tpy, Phenylethylny-(2,6-bis(pyridin-2-yl)pyridine)-platinum(II) Hexafluorophosphate], the “% of TO displacement at 1 µM of ligand” value is 52% in test [1], 55% in [7], 59% with c-myc G4 [8] and 37% in test [9]. For the same compound, in test [1], the “% of TOPRO3 displacement at 1 µM of ligand” value is listed as 3%. Also, the “% of PhenDV displacement at 1 µM of ligand” value in test [2] turned out to be 34%; in test [10] it was 20%; in the test with c-myc G4 [11] it was 2%; in [12], 13%. Also, the pIC50 in test [13] is 6.92; in [14] it was 7.10; in [15], 7.30. The IC50 in words result in [14] (A2780 cell lines) is listed as “active at nM concentration”. The “Resistance Factor (IC50ratio A2780cis/A2780)” value in test [15] was found to be 0.6. The TO-PRO-3 displacement result in [16] is “weak displacement”. Further, the “∆Tm (ligand-induced stabilization, FRET-melting)” value in test [17] is “complete lack of stabilization properties; also recorded: no stabilization”.

With `CN1/C(=C/C=C/c2cc[n+](CCC[N+](C)(C)C)c3ccccc23)Sc2ccccc21.[I-].[I-]` [TO-PRO-3], the “affinity constants towards all the tested G4s structures (Ka)” value in [18] was ~ 10^6 M^−1.

Consider `N.N.[Cl][Pt][Cl]` [cisplatin, reference compound], for which the pIC50 in [13] was 6.70; in [14] it was 6.48; in test [15] (A2780cis, 96 h treatment), 5.52. For the same compound, the “Resistance Factor (IC50ratio A2780cis/A2780)” value in test [15] (96 h treatment) was determined as 9.1.
